According to patent publication US9828338B2, “Carbamate derivatives of lactam based N-acylethanolamine acid amidase (NAAA) inhibitors” (The Regents of the University of California, priority 2013, dated 2017):

Each compound was assayed against T1, human NAAA (Homo sapiens, UniProt Q02083) (assay: Fluorogenic h-NAAA assay). Conditions: not given.
T1 construct: made in house; host or cells: HEK293 cells, stably transfected; soluble lysosomal fraction used as enzyme source
T1 sequence (Q02083 29-359): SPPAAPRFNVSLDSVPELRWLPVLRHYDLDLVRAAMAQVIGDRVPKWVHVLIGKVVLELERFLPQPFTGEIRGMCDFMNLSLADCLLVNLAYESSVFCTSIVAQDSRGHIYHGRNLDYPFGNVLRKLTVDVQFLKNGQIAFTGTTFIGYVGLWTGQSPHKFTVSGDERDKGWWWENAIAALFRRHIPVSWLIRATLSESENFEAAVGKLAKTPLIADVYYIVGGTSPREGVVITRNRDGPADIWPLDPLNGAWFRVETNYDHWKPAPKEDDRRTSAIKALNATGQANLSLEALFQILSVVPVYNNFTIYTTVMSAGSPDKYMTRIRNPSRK
Type: biochemical
Description: Hek293 cells stably transfected with the human NAAA coding sequence cloned from a human spleen cDNA library were used as enzyme source. Recombinant HEK-hNAAA pellets were resuspended in homogenizing buffer, and sonicated. Samples were centrifuged at 800×g for 15 min at 4° C. and the resultant supernatants were then ultracentrifuged at 12,000×g for 30 min at 4° C. The pellets were resuspended in PBS pH 7.4 on ice and subjected to a freeze/thaw cycle at −80° C. The suspension was finally centrifuged at 105,000×g for 1 h at 4° C. Protein concentration was measured and samples aliquoted and stored at −80° C. until use.
The assay was run in Optiplate 96-wells black plates, in a total reaction volume of 200 μL. NAAA protein preparation (4.0 μg) was pre-incubated for 10 min with various concentrations of test compounds or vehicle control (5% DMSO) in 100 mM citrate/phosphate buffer (pH 4.5) containing 3.0 mM DTT, 0.1% Triton X-100, 0.05% BSA, 150 mM NaCl. N-(4-methyl-2-oxo-chromen-7-yl)-hexadecanamide was used as a substrate (5.0 μM) and the reaction carried over for 30 min at 37° C. The samples were then read in a Perkin Elmer Envision plate reader using an excitation wavelength of 360 nm and emission 460 nm. IC50 values were calculated by non-linear regression analysis of log [concentration]/inhibition curves using GraphPad Prism 5 (GraphPad Software Inc., CA—USA) applying a standard slope curve fitting.
`CCC[C@H]1CC[C@H](COC(=O)N[C@H]2CNC2=O)CC1` [Example 104] gave an IC50 of 6 nM. `C#CCCCCCCCCCOC(=O)N[C@H]1CNC1=O` [Example 103, Undec-10-ynyl-N-[(3S)-2-oxoazetidin-3-yl]-carbamate] gave an IC50 of 6 nM. With `O=C(N[C@H]1CNC1=O)OCc1ccc(-c2ccccc2F)cc1` [Example 71, [4-(2-Fluorophenyl)-phenyl]-methyl-N-[(3S)-2-oxoazetidin-3-yl]-carbamate] the IC50 was 365 nM. With `C[C@@H]1NC(=O)[C@@H]1NC(=O)OCc1ccc(C2CCCCC2)cc1` [Example 85, (4-Cyclohexylphenyl)-methyl-N-[(2S,3R)-2-methyl-4-oxo-azetidin-3-yl]-carbamate] the IC50 was 619 nM. `Cc1ccc(COC(=O)N[C@H]2CNC2=O)cc1` [Example 94, p-Tolylmethyl-N-[(3S)-2-oxoazetidin-3-yl]-carbamate] gave an IC50 of 1230 nM.

Same assay, conditions: @ 2.5 μM; read-out: h-NAAA Fluorogenic assay % inhib.
Compound `O=C(N[C@H]1CNC1=O)OCc1ccc(C(=O)N2CCCCC2)cc1` [Example 69, [4-(Piperidine-1-carbonyl)-phenyl]-methyl-N-[(3S)-2-oxoazetidin-3-yl]-carbamate] has an inhibition at […] of 12%. `C[C@@H]1NC(=O)[C@@H]1NC(=O)OCc1ccc(-c2ccccc2)cc1` [Example 84, (4-Phenylphenyl)-methyl-N-[(2S,3R)-2-methyl-4-oxo-azetidin-3-yl]-carbamate] was tested, and the inhibition at […] was 18%. Compound `O=C(N[C@H]1CNC1=O)OCc1ccc(C(=O)NCc2ccccc2)cc1` [Example 70, [4-(Benzylcarbamoyl)-phenyl]-methyl-N-[(3S)-2-oxoazetidin-3-yl]-carbamate] has an inhibition at […] of 40%. `O=C(N[C@H]1CNC1=O)OCc1ccc(C(=O)NC2CCCCC2)cc1` [Example 68, [4-(Cyclohexylcarbamoyl)-phenyl]-methyl-N-[(3S)-2-oxoazetidin-3-yl]-carbamate] gave an inhibition at […] of 18%. With `O=C(N[C@H]1CNC1=O)OCc1cnc(-c2ccccc2)nc1` [Example 98, (2-Phenylpyrimidin-5-yl)-methyl-N-[(3S)-2-oxoazetidin-3-yl]-carbamate] the inhibition at […] was 26%. In the case of `O=C(N[C@H]1CNC1=O)OCc1ccc(-c2ccccc2)nc1` [Example 67, (6-Phenyl-3-pyridyl)-methyl-N-[(3S)-2-oxoazetidin-3-yl]-carbamate], the inhibition at […] is reported as 60%. Compound `O=C(N[C@H]1CNC1=O)OCc1ccc(I)cc1` [Example 101, (4-Iodophenyl)-methyl-N-[(3S)-2-oxoazetidin-3-yl]-carbamate] has an inhibition at […] of 95%.

Same assay, conditions: @ 50 μM; read-out: h-NAAA Fluorogenic assay % inhib.
Work on `O=C(N[C@H]1CNC1=O)OCc1ccc(C(=O)N2CCOCC2)cc1` [Example 53, [4-(Morpholine-4-carbonyl)-phenyl]-methyl-N-[(3S)-2-oxoazetidin-3-yl]-carbamate] yielded an inhibition at 50 µM of 55%. Compound `O=C(N[C@H]1CNC1=O)OCCc1ccccc1` [Example 28, Phenethyl-N-[(3S)-2-oxoazetidin-3-yl]-carbamate] has an inhibition at 50 µM of 65%. In the case of `O=C(N[C@H]1CNC1=O)OCCCCc1cccnc1` [Example 47, 4-(3-Pyridyl)-butyl-N-[(3S)-2-oxoazetidin-3-yl]-carbamate], the inhibition at 50 µM is reported as 55%.

What follows are compounds tested against T2, r-NAAA (Rattus norvegicus, UniProt Q5KTC7) (assay: UPLC/MS r-NAAA assay). Conditions: not given.
T2 construct: Lysosomal NAAA protein preparation was obtained by homogenizing male Sprague-Dawley rat lungs; tissue Charles River (animals); host or cells: male Sprague-Dawley rat lung, soluble lysosomal fraction
T2 sequence (Q5KTC7 34-362): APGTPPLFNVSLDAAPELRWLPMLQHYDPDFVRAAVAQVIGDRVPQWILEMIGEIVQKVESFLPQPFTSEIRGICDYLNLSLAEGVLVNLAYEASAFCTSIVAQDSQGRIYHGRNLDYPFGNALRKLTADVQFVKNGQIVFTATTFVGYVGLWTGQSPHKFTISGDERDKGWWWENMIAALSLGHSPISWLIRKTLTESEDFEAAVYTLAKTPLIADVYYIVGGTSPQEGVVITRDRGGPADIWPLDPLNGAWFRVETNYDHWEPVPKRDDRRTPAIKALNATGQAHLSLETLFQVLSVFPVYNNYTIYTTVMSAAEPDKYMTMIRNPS
Type: biochemical
Description: Lysosomal NAAA protein preparation was obtained by homogenizing male Sprague-Dawley rat lungs (Charles River) in 20 mM Tris-HCl buffer pH 7.4 containing 0.32M sucrose. […] Supernatants were then centrifuged at 12,000 xg for 30 min at 4° C. Pellets were then resuspended in PBS pH 7.4 and subjected to a freeze/thaw cycle at −80° C. The suspension was finally centrifuged at 105,000×g for 1 h at 4° C. The supernatant was then used in the enzymatic assay.
NAAA protein preparation was pre-incubated with various concentrations of test compounds or vehicle control in 100 mM NaH2PO4/Citrate buffer, 1% Triton-X, 3 mM DTT (pH 4.5) for 30 min at 37° C. Samples were then incubated with heptadecenoylethanolamide (50 μM, Avanti Polar Lipids) at 37° C. for 30 min. The reaction was terminated by addition of cold methanol containing heptadecanoic acid (NuCheck Prep) as internal standard. Samples were then analyzed by UPLC/MS (Acquity, Waters). […] The column temperature was 40° C. Electrospray ionization was in the negative mode, capillary voltage was 0.5 kV, cone voltage was […], desolvation temperature was 500° C. N2 was used as drying gas at a flow rate of 1000 L/hour and a temperature of 500° C. […] Calibration curves were generated using commercial heptadecenoic acid (NuCheck Prep) Inhibition of NAAA activity was calculated as reduction of heptadecenoic acid in the samples compared to vehicle controls. IC50 values were calculated by non-linear regression analysis of log [concentration]/inhibition curves using GraphPad Prism 5 (GraphPad Software Inc., CA—USA) applying a standard slope curve fitting.
Compound `Cc1ccccc1CCCCOC(=O)N[C@H]1CNC1=O` [Example 29, 4-(o-Tolyl)-butyl-N-[(3S)-2-oxoazetidin-3-yl]-carbamate] has an IC50 of 2000 nM. `CCCCc1ccc(COC(=O)N[C@H]2CNC2=O)cc1` [Example 26, (4-Butylphenyl)-methyl-N-[(3S)-2-oxoazetidin-3-yl]-carbamate] was tested, and the IC50 was 46 nM. With `Cc1ccccc1-c1ccc(COC(=O)N[C@H]2CNC2=O)cc1C` [Example 41, [3-Methyl-4-(o-tolyl)-phenyl]-methyl-N-[(3S)-2-oxoazetidin-3-yl]-carbamate] the IC50 was 910 nM. In the case of `C[C@H]1NC(=O)[C@@H]1NC(=O)OCCCCC1CCCCC1` [Example 80, 4-Cyclohexylbutyl-N-[(2R,3R)-2-methyl-4-oxo-azetidin-3-yl]-carbamate], the IC50 is reported as 21500 nM. `O=C(N[C@H]1CNC1=O)OCCOCCC1CCCCC1` [Example 51, 2-(2-Cyclohexylethoxy)-ethyl-N-[(3S)-2-oxoazetidin-3-yl]-carbamate] was tested, and the IC50 was 770 nM. With `O=C(N[C@H]1CNC1=O)OC1CCC(=Cc2ccccc2)CC1` (stereo partly drawn) [Example 8, (R,E) and (S,Z)-(4-Benzylidenecyclohexyl)-N-[(3S)-2-oxoazetidin-3-yl]-carbamate] the IC50 was 5700 nM. Work on `O=C(N[C@H]1CNC1=O)OCc1ccc(C2CCCC2)cc1` [Example 55, (4-Cyclopentylphenyl)-methyl-N-[(3S)-2-oxoazetidin-3-yl]-carbamate] yielded an IC50 of 31 nM. For `O=C(N[C@H]1CNC1=O)OCCCCCc1ccccc1` [Example 3, 5-Phenylpentyl-N-[(3S)-2-oxoazetidin-3-yl]-carbamate], the IC50 was 620 nM. `O=C(N[C@H]1CNC1=O)OCCCCC1CCCC1` [Example 20, 4-Cyclopentylbutyl-N-[(3S)-2-oxoazetidin-3-yl]-carbamate] was tested, and the IC50 was 48 nM. `C[C@H]1NC(=O)[C@@H]1NC(=O)OCc1ccc(C2CCCCC2)cc1` [Example 82, (4-Cyclohexylphenyl)-methyl-N-[(2R,3R)-2-methyl-4-oxo-azetidin-3-yl]-carbamate] gave an IC50 of 5100 nM. `O=C(N[C@H]1CNC1=O)OCCCC1CCCCC1` [Example 18, 3-Cyclohexylpropyl-N-[(3S)-2-oxoazetidin-3-yl]-carbamate] showed an IC50 of 40 nM. Work on `CCCCCCCCOC(=O)N[C@H]1CNC1=O` [Example 24, Octyl-N-[(3S)-2-oxoazetidin-3-yl]-carbamate] yielded an IC50 of 16 nM. In the case of `Cc1ccccc1-c1ccc(COC(=O)N[C@H]2CNC2=O)cc1` [Example 40, [4-(o-Tolyl)-phenyl]-methyl-N-[(3S)-2-oxoazetidin-3-yl]-carbamate], the IC50 is reported as 510 nM.

Same assay, conditions: @ 30 μM; read-out: r-NAAA UPLC/MS assay % inhib.
In the case of `C[C@H]1NC(=O)[C@H]1NC(=O)OCCCCCc1ccccc1` [Example 79, 5-Phenylpentyl-N-[(2R,3S)-2-methyl-4-oxo-azetidin-3-yl]-carbamate], the inhibition at 30 µM is reported as 35%.

Same assay, conditions: @100 μM
With `CC1(C)NC(=O)[C@H]1NC(=O)OCc1ccc(C2CCCCC2)cc1` [Example 88, (4-Cyclohexylphenyl)-methyl-N-[(3S)-2,2-dimethyl-4-oxo-azetidin-3-yl]-carbamate] the “r-NAAA UPLC/MS assay (n.a.)” value was “n.a. (n.a. = <10% inhib. @100 μM)”. In the case of `C[C@H]1NC(=O)[C@H]1NC(=O)OCc1ccc(-c2ccccc2)cc1` [Example 77, (4-Phenylphenyl)-methyl-N-[(2R,3S)-2-methyl-4-oxo-azetidin-3-yl]-carbamate], the “r-NAAA UPLC/MS assay (n.a.)” value is reported as “n.a. (n.a. = <10% inhib. @100 μM)”. In the case of `O=C(N[C@H]1CNC1=O)OCc1ccccc1C1CCCCC1` [Example 35, (2-Cyclohexylphenyl)-methyl-N-[(3S)-2-oxoazetidin-3-yl]-carbamate], the “r-NAAA UPLC/MS assay (n.a.)” value is reported as “n.a. (n.a. = <10% inhib. @100 μM)”.
